Reference: patent publication US9969747B2 (Constellation Pharmaceuticals, Inc., priority 2014, dated 2018)
Values joined by “and” are separate entries in the source; they are usually repeats but may differ in a detail not shown here. Equal values may be shown once. Read-outs that look alike come from different tables or passages of the source.

Tests used:
[1] = Oral pharmacokinetics in male beagle dogs, crossover, suspension in 0.5% MC; format: in vivo; conditions: for Inter-individual variability: 2 mg/Kg oral, crossover
Protocol: The objective was to compare the pharmacokinetic profiles of both forms in dogs using a crossover study design in which the same dogs were dosed sequentially with amorphous and monohydrate crystalline Form A with a washout period in between.

[2] = Solubility and form stability in deionized water; format: physicochemical
[3] = Oral pharmacokinetics in male Sprague Dawley rats, suspension in 0.5% Methylcellulose; format: in vivo; conditions: for Plasma concentration, PO1: group value
[4] = Gravimetric moisture sorption; format: physicochemical; conditions: over a relative humidity range of 5 to 95%
Description: This level of stability is rare for many pharmaceutical compounds, and particularly for hydrated forms since most are typically stable only at lower threshold values. Typically, one would expect to see stability of a monohydrate stoichiometry over a more limited range, e.g., between 30 to 70%. At relative humidity levels below 30% a compound would still retain water, but the stoichiometric ratio would be less than that of a true monohydrate. Likewise, at high relative humidity, the stoichiometric ratio of water to compound would exceed that of a monohydrate.

[5] = male beagle dog, 2 mg/Kg single oral dose, 0.25 h, 2 mg/kg
[6] = male beagle dog, 2 mg/Kg single oral dose, 0.5 h, 2 mg/kg
[7] = male beagle dog, 2 mg/Kg single oral dose, 1 h, 2 mg/kg
[8] = male beagle dog, 2 mg/Kg single oral dose, 2 h, 2 mg/kg
[9] = male beagle dog, 2 mg/Kg single oral dose, 4 h, 2 mg/kg
[10] = male beagle dog, 2 mg/Kg single oral dose, 6 h, 2 mg/kg
[11] = male beagle dog, 2 mg/Kg single oral dose, 8 h, 2 mg/kg
[12] = male beagle dog, 2 mg/Kg single oral dose, 12 h, 2 mg/kg
[13] = male beagle dog, 2 mg/Kg single oral dose, 24 h, 2 mg/kg
[14] = male beagle dog, 2 mg/Kg single oral dose, 2 mg/kg
[15] = 60 mg/Kg single oral dose, 1 h, 60 mg/kg
[16] = 60 mg/Kg single oral dose, 1 h, 60 mg/kg, in ng/mL
[17] = 60 mg/Kg single oral dose, 2 h, 60 mg/kg
[18] = 60 mg/Kg single oral dose, 2 h, 60 mg/kg, in ng/mL
[19] = 60 mg/Kg single oral dose, 4 h, 60 mg/kg
[20] = 60 mg/Kg single oral dose, 8 h, 60 mg/kg
[21] = 60 mg/Kg single oral dose, 24 h, 60 mg/kg
[22] = 60 mg/Kg single oral dose, 60 mg/kg

## Cc1noc2c1-c1ccccc1C(c1ccc(Cl)cc1)=N[C@H]2CC(N)=O [amorphous form, 2-((4S)-6-(4-chlorophenyl)-1-methyl-4H-benzo[c]isoxazolo[4,5-e]azepin-4-yl)acetamide]
[1]; male beagle dog
  Inter-individual variability: low inter-individual variability
[1]; [5]
  Plasma concentration, Mean: 188 ng/mL
[1]; [6]
  Plasma concentration, Mean: 471 ng/mL
[1]; [7]
  Plasma concentration, Mean: 658 ng/mL
[1]; [8]
  Plasma concentration, Mean: 577 ng/mL
[1]; [9]
  Plasma concentration, Mean: 528 ng/mL
[1]; [10]
  Plasma concentration, Mean: 289 ng/mL
[1]; [11]
  Plasma concentration, Mean: 232 ng/mL
[1]; [12]
  Plasma concentration, Mean: 153 ng/mL
[1]; [13]
  Plasma concentration, Mean: 64 ng/mL
[1]; [14]
  AUC0-inf, individual dogs: 5120 ng·h/mL and 7510 ng·h/mL and 6550 ng·h/mL and 4950 ng·h/mL and 7070 ng·h/mL
  AUC0-last, individual dogs: 4560 ng·h/mL and 6220 ng·h/mL and 5540 ng·h/mL and 4610 ng·h/mL and 6060 ng·h/mL
  Cmax, individual dogs: 646 ng/mL and 681 ng/mL and 672 ng/mL and 705 ng/mL and 706 ng/mL
  MRT0-last, individual dogs: 7.73 h (2×) and 6.48 h and 7.69 h
  T1/2, individual dogs: 7.86 h and 10.17 h and 9.21 h and 6.82 h and 9.17 h
  Tmax, individual dogs: 1.00 h (5×) and 4.00 h
[1]; male, beagle, dog, plasma, po, 2 mg/kg, 2 mg/Kg single oral dose
  Tmax: 1.5 h
[1]; male, beagle, dog, plasma, po, 2 mg/kg, 2 mg/Kg single oral dose, read-out: AUC0-inf, Mean
  AUC(0-inf): 6220 ng·h/mL
[1]; male, beagle, dog, plasma, po, 2 mg/kg, 2 mg/Kg single oral dose, read-out: AUC0-inf, individual dogs
  AUC(0-inf): 6110 ng·h/mL
[1]; male, beagle, dog, plasma, po, 2 mg/kg, 2 mg/Kg single oral dose, read-out: AUC0-last, Mean
  AUC(0-t): 5390 ng·h/mL
[1]; male, beagle, dog, plasma, po, 2 mg/kg, 2 mg/Kg single oral dose, read-out: AUC0-last, individual dogs
  AUC(0-t): 5370 ng·h/mL
[1]; male, beagle, dog, plasma, po, 2 mg/kg, 2 mg/Kg single oral dose, read-out: Cmax, Mean
  Cmax: 670 ng/mL
[1]; male, beagle, dog, plasma, po, 2 mg/kg, 2 mg/Kg single oral dose, read-out: Cmax, individual dogs
  Cmax: 609 ng/mL
[1]; male, beagle, dog, plasma, po, 2 mg/kg, 2 mg/Kg single oral dose, read-out: MRT0-inf, Mean
  MRT inf: 11.2 h
[1]; male, beagle, dog, plasma, po, 2 mg/kg, 2 mg/Kg single oral dose, read-out: MRT0-inf, individual dogs
  MRT inf: 11 h
[1]; male, beagle, dog, plasma, po, 2 mg/kg, 2 mg/Kg single oral dose, read-out: MRT0-last, Mean
  MRT last: 7.45 h
[1]; male, beagle, dog, plasma, po, 2 mg/kg, 2 mg/Kg single oral dose, read-out: MRT0-last, individual dogs
  MRT last: 7.59 h
[1]; male, beagle, dog, plasma, po, 2 mg/kg, 2 mg/Kg single oral dose, read-out: T1/2, Mean (converted)
  half-life: 8.59 h
[1]; male, beagle, dog, plasma, po, 2 mg/kg, 2 mg/Kg single oral dose, read-out: T1/2, individual dogs (converted)
  half-life: 8.31 h
[2]; slurry in deionized water for 24 hr at ambient temperature
  Form change upon slurry in deionized water: conversion to monohydrate Form A was observed
[3]; [15]
  Plasma concentration, individual rats: 8650 ng/mL
[3]; [16]
  Plasma concentration, Mean: 11700
  Plasma concentration, individual rats: 12700 and 13800
[3]; [17]
  Plasma concentration, individual rats: 8830 ng/mL
[3]; [18]
  Plasma concentration, Mean: 11900
  Plasma concentration, individual rats: 14900 and 12100
[3]; [19]
  Plasma concentration, Mean: 9860 ng/mL
  Plasma concentration, individual rats: 8410 ng/mL and 9370 ng/mL
[3]; 60 mg/Kg single oral dose, 4 h, 60 mg/kg, in ng/mL
  Plasma concentration, individual rats: 11800
[3]; [20]
  Plasma concentration, Mean: 6440 ng/mL
  Plasma concentration, individual rats: 6550 ng/mL and 6450 ng/mL and 6310 ng/mL
[3]; 60 mg/Kg single oral dose, 24 h
  Plasma concentration, Mean: BQL
[3]; [21]
  Plasma concentration, individual rats: BQL
[3]; male, Sprague Dawley, rat, plasma, po, 60 mg/kg, 60 mg/Kg single oral dose, read-out: Cmax
  Cmax: 11900 ng/mL
[3]; rat, plasma, 60 mg/Kg single oral dose, read-out: Tmax
  Tmax: 2 h

## Cc1noc2c1-c1ccccc1C(c1ccc(Cl)cc1)=N[C@H]2CC(N)=O [monohydrate Form A, 2-((4S)-6-(4-chlorophenyl)-1-methyl-4H-benzo[c]isoxazolo[4,5-e]azepin-4-yl)acetamide]
[1]; male beagle dog
  Inter-individual variability: low inter-individual variability
[1]; male beagle dog, 2 mg/Kg single oral dose
  Tmax, Mean: 1.50 h
[1]; [5]
  Plasma concentration, Mean: 100 ng/mL
[1]; [6]
  Plasma concentration, Mean: 330 ng/mL
[1]; [7]
  Plasma concentration, Mean: 522 ng/mL
[1]; [8]
  Plasma concentration, Mean: 512 ng/mL
[1]; [9]
  Plasma concentration, Mean: 435 ng/mL
[1]; [10]
  Plasma concentration, Mean: 278 ng/mL
[1]; [11]
  Plasma concentration, Mean: 214 ng/mL
[1]; [12]
  Plasma concentration, Mean: 151 ng/mL
[1]; [13]
  Plasma concentration, Mean: 67.1 ng/mL
[1]; [14]
  AUC0-inf, Mean: 5853 ng·h/mL
  AUC0-inf, individual dogs: 5350 ng·h/mL and 4540 ng·h/mL and 7490 ng·h/mL and 4980 ng·h/mL and 6220 ng·h/mL and 6540 ng·h/mL
  AUC0-last, Mean: 4892 ng·h/mL
  AUC0-last, individual dogs: 4650 ng·h/mL and 4040 ng·h/mL and 5850 ng·h/mL and 3960 ng·h/mL and 5390 ng·h/mL and 5460 ng·h/mL
  Cmax, Mean: 536 ng/mL
  Cmax, individual dogs: 542 ng/mL and 482 ng/mL and 615 ng/mL and 459 ng/mL and 549 ng/mL and 569 ng/mL
  MRT0-last, Mean: 7.95 h
  MRT0-last, individual dogs: 7.74 h and 7.34 h and 8.38 h and 8.01 h and 7.93 h and 8.32 h
  T1/2, Mean: 9.70 h
  T1/2, individual dogs: 8.60 h and 8.14 h and 11.97 h and 11.58 h and 8.31 h and 9.57 h
  Tmax, individual dogs: 2.00 h
[2]; deionized water
  Stability of the form in deionized water: stable
[2]; deionized water, water, thermodynamic from solid
  solubility: 4.5 µg/mL
[4]
  Water content (monohydrate stoichiometry) in gravimetric moisture sorption: approximately 5%
[3]; 10 mg/Kg single oral dose, 299 s, 10 mg/kg
  Plasma concentration, individual rats: 51.3 ng/mL and 182 ng/mL and 89.2 ng/mL and 191 ng/mL and 166 ng/mL and 31.5 ng/mL
[3]; 10 mg/Kg single oral dose, 1.00 h, 10 mg/kg
  Plasma concentration, individual rats: 1940 ng/mL and 1620 ng/mL and 1510 ng/mL and 2300 ng/mL and 1790 ng/mL and 1600 ng/mL
[3]; 10 mg/Kg single oral dose, 1.00 h
  Plasma concentration, PO1: 1790 ng/mL
[3]; 10 mg/Kg single oral dose, 2.00 h, 10 mg/kg
  Plasma concentration, individual rats: 1400 ng/mL and 1320 ng/mL and 1420 ng/mL and 1650 ng/mL and 950 ng/mL and 1000 ng/mL
[3]; 10 mg/Kg single oral dose, 2.00 h
  Plasma concentration, PO1: 1290 ng/mL
[3]; 10 mg/Kg single oral dose, 4.00 h, 10 mg/kg
  Plasma concentration, individual rats: 611 ng/mL and 349 ng/mL and 569 ng/mL and 544 ng/mL and 166 ng/mL and 255 ng/mL
[3]; 10 mg/Kg single oral dose, 4.00 h
  Plasma concentration, PO1: 416 ng/mL
[3]; 10 mg/Kg single oral dose, 8.00 h, 10 mg/kg
  Plasma concentration, individual rats: 56.3 ng/mL and 18.1 ng/mL and 32.4 ng/mL and 13.6 ng/mL and 2.93 ng/mL and 18.2 ng/mL
[3]; 10 mg/Kg single oral dose, 8.00 h
  Plasma concentration, PO1: 23.6 ng/mL
[3]; 60 mg/Kg single oral dose
  Tmax: 2.0 h
[3]; [22]
  AUC0-last: 52800 ng·h/mL
  Cmax: 7197 ng/mL
[3]; 60 mg/Kg single oral dose, 299 s
  Plasma concentration, Mean: 304 ng/mL
[3]; 60 mg/Kg single oral dose, 299 s, 60 mg/kg
  Plasma concentration, individual rats: 183 ng/mL and 407 ng/mL and 512 ng/mL and 158 ng/mL and 391 ng/mL and 172 ng/mL
[3]; 60 mg/Kg single oral dose, 0.250 h
  Plasma concentration, Mean: 2150 ng/mL
[3]; 60 mg/Kg single oral dose, 0.250 h, 60 mg/kg
  Plasma concentration, individual rats: 1830 ng/mL and 2770 ng/mL and 2670 ng/mL and 2150 ng/mL and 2050 ng/mL and 1420 ng/mL
[3]; 60 mg/Kg single oral dose, 0.500 h
  Plasma concentration, Mean: 4060 ng/mL
[3]; 60 mg/Kg single oral dose, 0.500 h, 60 mg/kg
  Plasma concentration, individual rats: 3610 ng/mL and 5250 ng/mL and 3790 ng/mL and 4120 ng/mL and 4050 ng/mL and 3550 ng/mL
[3]; [15]
  Plasma concentration, Mean: 5530 ng/mL
  Plasma concentration, individual rats: 5290 ng/mL and 6110 ng/mL and 6840 ng/mL and 5440 ng/mL and 4740 ng/mL and 4770 ng/mL
[3]; [17]
  Plasma concentration, Mean: 7200 ng/mL
  Plasma concentration, individual rats: 8220 ng/mL and 7490 ng/mL and 6700 ng/mL and 8330 ng/mL and 6850 ng/mL and 5590 ng/mL
[3]; [19]
  Plasma concentration, Mean: 6070 ng/mL
  Plasma concentration, individual rats: 7740 ng/mL and 4850 ng/mL and 5160 ng/mL and 8350 ng/mL and 5690 ng/mL and 4650 ng/mL
[3]; [20]
  Plasma concentration, Mean: 1760 ng/mL
  Plasma concentration, individual rats: 3050 ng/mL and 805 ng/mL and 1220 ng/mL and 1960 ng/mL and 2320 ng/mL and 1200 ng/mL
[3]; [21]
  Plasma concentration, individual rats: BQL (5×) and 1.04
[3]; male, Sprague Dawley, rat, plasma, po, 10 mg/kg, 10 mg/Kg single oral dose
  AUC(0-t): 5500 ng·h/mL
[3]; male, Sprague Dawley, rat, plasma, po, 10 mg/kg, 10 mg/Kg single oral dose, read-out: Cmax
  Cmax: 1790 ng/mL
[3]; oral, 10 and 60 mg/Kg
  Inter-individual differences: Low inter-individual differences
[3]; oral, dose increases from 10 to 60 mg/Kg
  Dose proportionality of Cmax and AUC: increase slightly more than proportionally with the dose
[3]; rat, plasma, 10 mg/Kg single oral dose, read-out: Tmax
  Tmax: 1 h
